The results in this text go back to patent US8912169B2, “Beta-lactamase inhibitors” (VenatoRx Pharmaceuticals, Inc., priority 2012, dated 2014).

In general, IC50 refers to the concentration that inhibits the measured activity by half.

Holding throughout (format): biochemical
Assay [1] concerns the target T1, p99 AmpC (Enterobacter cloacae, UniProt P05364).
T1 construct: made in house; host or cells: E. coli BL21(DE3)
Kind of assay: β-lactamase enzyme inhibition, p99 AmpC. The method, then: (§1) For SHV-5, Kpc-2, p99AmpC and OXA-1 β-lactamases, E. coli BL21(DE3) bacterial cells carrying expression plasmids (expressed as native untagged proteins) for the individual β-lactamases were grown in 1 L of Superbroth (Teknova Inc. Hollister, Calif.) supplemented with 100 μg/mlkanamycin selection and 1×5052 (0.5% glycerol, 0.05% glucose and 0.2% α-lactose) at 35° C. for 18-20 hours. Cells were harvested by centrifugation (4,000×g, 4° C., 20 min), resuspended in 50 ml of 10 mM HEPES pH 7.5 ( 1/20 of the initial volume). The cells were lysed by sonication (5 pulses of 45 seconds) at 45 W on ice. The lysates were clarified by centrifugation at 10,000×g for 40 minutes at 4° C. Samples were diluted 5-fold in 50 mM sodium acetate pH 5.0, stored overnight at 4° C., after which they were centrifuged at 10,000×g for 30 minutes to clarify, and filtered through 0.45 μm filters. The samples were loaded onto a 5 ml Capto S sepharose cation exchange column (GE Healthcare) pre-equilibrated with 50 mM sodium acetate pH 5.0. The column was washed with 5 column volumes of 50 mM sodium acetate pH 5.0 to wash out unbound protein and a linear gradient of NaCl (0 to 500 mM) was used to elute the protein (over 16 CV) from the column. Fractions were assayed for β-lactamase activity using Centa (Calbiochem, Gibbstown, N.J.) or Nitrocefin (EMD Millipore chemicals, Darmstadt, Germany) as a reporter β-lactamase substrate for activity in the isolated fractions. Active fractions were pooled, concentrated and further purified by gel filtration chromatography on a Superdex 75 prep grade gel filtration column (GE Healthcare, Piscataway, N.J.) pre-equilibrated in 50 mM Hepes pH 7.5, 150 mM NaCl. Active fractions were pooled concentrated, quantitated by BCA protein determination (Thermo Scientific, Rockford, Ill.), dialyzed into PBS and frozen at −80° C. in 20% glycerol until use.
(§2) An equal volume of diluted enzyme stock was added, and the plates were incubated at 37° C. for 15 min. Nitrocefin was used as substrate for p99 AmpC, VIM-2 and OXA-1 and dispensed into each well at a final concentration of 100 μM. Absorbance at 486 nm was immediately monitored for 10 min using a Biotek Powerwave XS2 microplate spectrophotometer using the GENS software package (Biotek Instruments, Winooski Vt.). In an analogous fashion, imipenem was used as substrate for Kpc-2 and Cefotaxime was used for SHV-5, while changes in absorbance upon hydrolysis of the β-lactam ring were monitored at 300 nm and 260 nm respectively in UV-transparent 96-well microtiter assay plates. Maximum rates of hydrolysis were compared to those in control wells (without inhibitors), and percentages of enzyme inhibition were calculated for each concentration of inhibitor. The concentration of inhibitor needed to reduce the initial rate of hydrolysis of substrate by 50% (IC50) was calculated as the residual activity of β-lactamase at 486 nm using GraFit version 7 kinetics software package (Erithacus Software, Surrey, UK).
(§3) Using the methodology described above, examples of the current invention were evaluated for their ability to inhibit β-lactamase enzymes from all four Ambler classifications (A through D). […] NT=Not tested.

Assay [2] concerns the target T2, KPC-2 (Klebsiella pneumoniae, UniProt Q9F663).
T2 construct: made in house; host or cells: E. coli BL21(DE3)
Description: β-lactamase enzyme inhibition, KPC-2. Conditions: substrate imipenem, 300 nm; read-out: Class A KPC-2 IC50. The method, then:
as §1, §2, §3

Assay [3] has as its target T3, SHV-5 (Klebsiella pneumoniae, UniProt P0A3M1).
T3 construct: made in house; host or cells: E. coli BL21(DE3)
Description: β-lactamase enzyme inhibition, SHV-5. The method, then:
as §1, §2, §3

The target of assay [4] is T4, VIM-2 (Escherichia coli, UniProt Q5U7L7).
T4 construct: made in house; host or cells: E. coli BL21(DE3)
Description: β-lactamase enzyme inhibition, VIM-2. The following applies: substrate Nitrocefin 100 μM, 486 nm; read-out: Class B VIM-2 IC50. Here is the method:
For Vim-2 metallo β-lactamase, the procedure was identical with the following exceptions, first the protein was not pH adjusted to pH 5 with 50 mM sodium acetate, second, the chromatography step was changed to a 5 ml Q sepharose anion exchange column pre-equilibrated with 50 mM Hepes pH 7.5, and elution of the protein was achieved by a linear gradient of NaCl (0-600 mM). Finally, the VIM-2 purification required a second run (3rd step) on the Q sepharose anion exchange column to achieve acceptable purity (>90%).
as §2, §3

Assay [5] deals with T5, OXA-1 (Escherichia coli, UniProt P13661).
T5 construct: made in house; host or cells: E. coli BL21(DE3)
Kind of assay: β-lactamase enzyme inhibition, OXA-1. The following applies: substrate Nitrocefin 100 μM, 486 nm; read-out: Class D OXA-1 IC50. The method, then:
as §1, §2, §3

As to `O=C(C[C@H]1CC[C@H](N2C=NCC2)CC1)N[C@H]1Cc2cccc(C(=O)O)c2OB1O` [Example 29, (R)-3-(2-(trans-4-(4,5-dihydro-1H-imidazol-1-yl)cyclohexyl)acetamido)-2-hydroxy-3,4-dihydro-2H-benzo[e][1,2]oxaborinine-8-carboxylic acid], the IC50 in assay [1] was under 100 nM; in assay [2], under 100 nM; in assay [3], under 100 nM; in assay [4], 100 to 1000 nM; in assay [5], under 100 nM.
Regarding `N=CN[C@H]1CC[C@H](CC(=O)N[C@H]2Cc3cccc(C(=O)O)c3OB2O)CC1` [Example 30, (R)-3-(2-(trans-4-formimidamidocyclohexyl)acetamido)-2-hydroxy-3,4-dihydro-2H-benzo[e][1,2]oxaborinine-8-carboxylic acid], the IC50 in assay [1] is under 100 nM; in assay [2], under 100 nM; in assay [3], under 100 nM; in assay [4], 100 to 1000 nM; in assay [5] it was 100 to 1000 nM.
As to `O=C(CC1CCCCC1)N[C@H]1Cc2cccc(C(=O)O)c2OB1O` [Example 31, (R)-3-(2-cyclohexylacetamido)-2-hydroxy-3,4-dihydro-2H-benzo[e][1,2]oxaborinine-8-carboxylic acid], the IC50 in assay [1] is under 100 nM; in assay [2], under 100 nM; in assay [3] it was under 100 nM; in assay [4], 1000 to 10000 nM; in assay [5], under 100 nM.
On to `O=C(C[C@H]1CC[C@H](NCc2ccccn2)CC1)N[C@H]1Cc2cccc(C(=O)O)c2OB1O` [Example 32, (R)-2-hydroxy-3-(2-(trans-4-(pyridin-2-ylmethylamino)cyclohexyl)acetamido)-3,4-dihydro-2H-benzo[e][1,2]oxaborinine-8-carboxylic acid], for which the IC50 in assay [1] is under 100 nM; in assay [2], under 100 nM; in assay [3], under 100 nM; in assay [4] it was 100 to 1000 nM; in assay [5], under 100 nM.
Regarding `O=C(C[C@H]1CC[C@H](NCC2CCNCC2)CC1)N[C@H]1Cc2cccc(C(=O)O)c2OB1O` [Example 33, (R)-2-hydroxy-3-(2-(trans-4-(piperidin-4-ylmethylamino)cyclohexyl)acetamido)-3,4-dihydro-2H-benzo[e][1,2]oxaborinine-8-carboxylic acid], the IC50 in assay [1] is under 100 nM; in assay [2], under 100 nM; in assay [3], under 100 nM; in assay [4] it was 100 to 1000 nM; in assay [5], under 100 nM.
`N=C(N)N1CCC(CN[C@H]2CC[C@H](CC(=O)N[C@H]3Cc4cccc(C(=O)O)c4OB3O)CC2)CC1` [Example 34, (R)-3-(2-(trans-4-((1-carbamimidoylpiperidin-4-yl)methylamino)cyclohexyl)acetamido)-2-hydroxy-3,4-dihydro-2H-benzo[e][1,2]oxaborinine-8-carboxylic acid]: the IC50 in assay [1] was under 100 nM; in assay [2], under 100 nM; in assay [3], under 100 nM; in assay [4] it was 100 to 1000 nM; in assay [5] it was under 100 nM.
As to `N[C@H]1CC(CC(=O)N[C@H]2Cc3cccc(C(=O)O)c3OB2O)C[C@@H]1N` [Example 37], the IC50 in assay [1] was under 100 nM; in assay [2] it was under 100 nM; in assay [3], 1000 to 10000 nM; in assay [4], 100 to 1000 nM; in assay [5] it was under 100 nM.
For `CC(NC(=O)C1C[C@H](N)[C@@H](N)C1)C(=O)N[C@H]1Cc2cccc(C(=O)O)c2OB1O` (some centres unmarked) [Example 38], the IC50 in assay [1] was under 100 nM; in assay [2], 100 to 1000 nM; in assay [3] it was under 100 nM; in assay [4], 100 to 1000 nM; in assay [5] it was 100 to 1000 nM.
As to `O=C(C[C@H]1CC[C@H](NCc2nccs2)CC1)N[C@H]1Cc2cccc(C(=O)O)c2OB1O` [Example 39], the half-maximal inhibitory concentration (IC50) in assay [1] is under 100 nM; in assay [2], under 100 nM; in assay [3], under 100 nM; in assay [4] it was 1000 to 10000 nM; in assay [5] it was under 100 nM.
For the compound `O=C(CC1CCC(N2CCOCC2)CC1)N[C@H]1Cc2cccc(C(=O)O)c2OB1O` (stereo partly drawn) [Example 40, (R)-2-hydroxy-3-(2-(4-morpholinocyclohexyl)acetamido)-3,4-dihydro-2H-benzo[e][1,2]oxaborinine-8-carboxylic acid], the IC50 in assay [1] is under 100 nM; in assay [2] it was under 100 nM; in assay [3], 100 to 1000 nM; in assay [4], under 100 nM; in assay [5], under 100 nM.
For `N[C@@H](C(=O)N[C@H]1Cc2cccc(C(=O)O)c2OB1O)C1CCCCC1` [Example 42, (R)-3-((R)-2-amino-2-cyclohexylacetamido)-2-hydroxy-3,4-dihydro-2H-benzo[e][1,2]oxaborinine-8-carboxylic acid], the IC50 in assay [1] was under 100 nM; in assay [2] it was under 100 nM; in assay [3], 100 to 1000 nM; in assay [4], 1000 to 10000 nM; in assay [5] it was 100 to 1000 nM.
In the case of `NCCNC1CCC(O)(CC(=O)N[C@H]2Cc3cccc(C(=O)O)c3OB2O)CC1` (some centres unmarked) [Example 43, 3-{2-[4-(2-Amino-ethylamino)-1-hydroxy-cyclohexyl]-acetylamino}-2-hydroxy-3,4-dihydro-2H-benzo[e][1,2]oxaborinine-8-carboxylic acid], the IC50 in assay [1], in assay [2], in assay [3], in assay [4] and in assay [5] was under 100 nM in each case.
As for `NC1CCC(O)(CC(=O)N[C@H]2Cc3cccc(C(=O)O)c3OB2O)CC1` (some centres unmarked) [Example 44, 3-[2-(4-Amino-1-hydroxy-cyclohexyl)-acetylamino]-2-hydroxy-3,4-dihydro-2H-benzo[e][1,2]oxaborinine-8-carboxylic acid], the 50% inhibitory concentration (IC50) lay within 100 to 1000 nM in assay [1]; 100 to 1000 nM in assay [2]; 100 to 1000 nM in assay [3]; 1000 to 10000 nM in assay [4]; 100 to 1000 nM in assay [5].
`N[C@H]1CC[C@H](NCC(=O)N[C@H]2Cc3cccc(C(=O)O)c3OB2O)CC1` [Example 45, 3-[2-(4-Amino-cyclohexylamino)-acetylamino]-2-hydroxy-3,4-dihydro-2H-benzo[e][1,2]oxaborinine-8-carboxylic acid]: the IC50 in assay [1] is under 100 nM; in assay [2], under 100 nM; in assay [3], under 100 nM; in assay [4] it was 1000 to 10000 nM; in assay [5], 100 to 1000 nM.
`NCCN[C@H]1CC[C@@H](CC(=O)N[C@H]2Cc3cccc(C(=O)O)c3OB2O)CC1` [Example 46, (R)-3-(2-(cis-4-(2-aminoethylamino)cyclohexyl)acetamido)-2-hydroxy-3,4-dihydro-2H-benzo[e][1,2]oxaborinine-8-carboxylic acid]: the IC50 was under 100 nM in assay [1]; under 100 nM in assay [2]; 100 to 1000 nM in assay [3]; 100 to 1000 nM in assay [4]; under 100 nM in assay [5].
`O=C(C[C@H]1CC[C@H](NCCNc2ccccn2)CC1)N[C@H]1Cc2cccc(C(=O)O)c2OB1O` [Example 48, (R)-2-hydroxy-3-(2-(trans-4-(2-(pyridin-2-ylamino)ethylamino)cyclohexyl)acetamido)-3,4-dihydro-2H-benzo[e][1,2]oxaborinine-8-carboxylic acid]: the IC50 in assay [1] was under 100 nM; in assay [2], under 100 nM; in assay [3], under 100 nM; in assay [4], 100 to 1000 nM; in assay [5], under 100 nM.
